The record followed here is patent US11878971B2, “Piperlongumine-based compound and immuno regulator comprising the same” (HUSCION CO., LTD., priority 2020, dated 2024).

“Also recorded” adds a separate entry of the source.

The subject of one assay is IL-4 gene expression. The assay is described as follows: T cell-dependent cytokine IL-4 gene expression inhibition, splenocytes ex vivo. The note with it: Balb/c mouse splenocytes, CD3 monoclonal antibody stimulation; control cyclosporine (CsA); FIG. 8.
The test system of a further assay is NF-κB signaling pathway. In words: Reporter gene assay THP1-Lucia NF-κB. The format is cell-based. The note with it: THP1-Lucia NF-κB cells stimulated with LPS; FIG. 11. On the procedure:
(§1) In the present test example, THP1-Lucia NF-κB, HEK-Lucia RIG-1, HEK-Blue-IL-4/IL-13, and HEK-Blue IL-10 cell lines were purchased from InVivoGen, and evaluated for inhibitory activity on immune cell signaling, and the analysis was performed according to the manufacturer's analysis method. Specifically, the four types of cell lines were treated with each of test substances, which are the piperlongumine-based compounds 1 to 19, and then treated with each of promoter stimulants (LPS, 3p-hpRNA, interleukin-4, and interleukin-10). The response was induced according to the guidelines, and then the activity inhibitory ability was analyzed.
On the technique in general: Reporter assays use an easily measured gene product as a stand-in for the process of interest.

A further assay has as its system RIG1. The assay is described as follows: Reporter gene assay HEK-Lucia RIG-1. It is filed as cell-based. The note with it: HEK-Lucia RIG-1 cells, stimulant 3p-hpRNA; FIG. 12. How it is done: as §1
For another assay, the system named is STAT3 signaling. The assay is described as follows: Reporter gene assay HEK-Blue IL-10. The format is cell-based. The note with it: HEK-Blue IL-10 cells, stimulant interleukin-10; FIG. 13. How it is done:
as §1

For the next assay, the system named is STAT6 signaling. The assay is described as follows: Reporter gene assay HEK-Blue-IL-4/IL-13. The format is cell-based. The note with it: HEK-Blue-IL-4/IL-13 cells, stimulant interleukin-4; FIG. 14. On the procedure:
as §1
STAT6 is a transcription factor that plays a role in modulating the expression of various cytokines, hormones, and growth factors by signals coming from the outside. IL-4/IL-13 and STAT6 are also important modulator of Th2.

The subject of a further assay is IL-2 gene expression. The assay is described as follows: T cell-dependent cytokine IL-2 gene expression inhibition, splenocytes ex vivo. The note with it: Balb/c mouse splenocytes, CD3 monoclonal antibody stimulation; control cyclosporine (CsA); FIG. 6.
The next assay concerns IFNγ expression. In words: T cell-dependent cytokine IFNγ gene expression inhibition, splenocytes ex vivo. The note with it: Balb/c mouse splenocytes, CD3 monoclonal antibody stimulation; FIG. 7.
The subject of another assay is IL-17a gene expression. In words: T cell-dependent cytokine IL-17a gene expression inhibition, splenocytes ex vivo. The note with it: Balb/c mouse splenocytes, CD3 monoclonal antibody stimulation.

Turning to `COC(=O)c1cc(/C=C/C(=O)N2CCC=C(Br)C2=O)ccc1OC(C)=O` [Compound 11, (E)-methyl-2-acetoxy-5-(3-(3-bromo-2-oxo-5,6-dihydropyridin-1(2H)-yl)-3-oxoprop-1-en-1-yl)benzoate], the “IL-4 gene expression inhibitory activity” value with IL-4 gene expression is reported as “IL-4 gene expression inhibitory activity at a significant level equal to or greater than that of cyclosporine”.

As for `COC(=O)c1cc(/C=C/C(=O)N2CCC=C(Cl)C2=O)ccc1OC` [Compound 3, (E)-methyl-5-(3-(3-chloro-2-oxo-5,6-dihydropyridin-1(2H)-yl)-3-oxoprop-1-en-1-yl)-2-methoxybenzoate], the “NF-κB activity inhibitory effect” value in the assay with NF-κB signaling pathway was “very high NF-κB activity inhibitory ability”. In the assay on RIG1, the “RIG1 activity inhibitory effect” value is reported as “very high RIG1 activity inhibitory ability”. The “STAT3 activity inhibitory effect” value in the assay with STAT3 signaling was “very high STAT3 activity inhibitory ability”. The “STAT6 activity inhibitory effect” value with STAT6 signaling was “very high STAT6 activity inhibitory ability”. In the assay on IL-2 gene expression, the “IL-2 gene expression inhibitory activity” value is “IL-2 gene expression inhibitory activity at a significant level equal to or greater than that of cyclosporine; also recorded: effectively inhibit”. Moreover, the “inhibitory ability on Th1-derived IFNγ expression” value (“inhibitory ability” for short) in the assay with IFNγ expression is listed as “effectively inhibit”. Besides, in the assay on IL-4 gene expression, the “IL-4 gene expression inhibitory activity” value is reported as “IL-4 gene expression inhibitory activity at a significant level equal to or greater than that of cyclosporine; also recorded: effectively inhibit”.

Regarding `COC(=O)c1cc(/C=C/C(=O)N2CCC=C(Br)C2=O)ccc1OC` [Compound 9, (E)-methyl-5-(3-(3-bromo-2-oxo-5,6-dihydropyridin-1(2H)-yl)-3-oxoprop-1-en-1-yl)-2-methoxybenzoate], in the assay on NF-κB signaling pathway, the “NF-κB activity inhibitory effect” value is reported as “very high NF-κB activity inhibitory ability”. In addition, the “RIG1 activity inhibitory effect” value with RIG1 is given as “very high RIG1 activity inhibitory ability”. The “STAT3 activity inhibitory effect” value with STAT3 signaling was “very high STAT3 activity inhibitory ability”. In the assay with IL-2 gene expression, the “IL-2 gene expression inhibitory activity” value is reported as “IL-2 gene expression inhibitory activity at a significant level equal to or greater than that of cyclosporine; also recorded: effectively inhibit”. For the same compound, the “inhibitory ability” value in the assay with IFNγ expression is “effectively inhibit”. Further, the “IL-4 gene expression inhibitory activity” value in the assay on IL-4 gene expression is “IL-4 gene expression inhibitory activity at a significant level equal to or greater than that of cyclosporine; also recorded: effectively inhibit”.

In the case of `COC(=O)c1cc(/C=C/C(=O)N2CCC=C(Cl)C2=O)ccc1OC(C)=O` [Compound 13, (E)-methyl-2-acetoxy-5-(3-(3-chloro-2-oxo-5,6-dihydropyridin-1(2H)-yl)-3-oxoprop-1-en-1-yl)benzoate], the “STAT3 activity inhibitory effect” value in the assay on STAT3 signaling is on record as “very high STAT3 activity inhibitory ability”. Further, in the assay with STAT6 signaling, the “STAT6 activity inhibitory effect” value is “very high STAT6 activity inhibitory ability”.

For `COC(=O)c1cc(/C=C/C(=O)N2CCC=CC2=O)ccc1OC` [Compound 1, (E)-methyl-2-methoxy-5-(3-oxo-3-(2-oxo-5,6-dihydropyridin-1(2H)-yl)prop-1-en-1-yl)benzoate], the “NF-κB activity inhibitory effect” value in the assay on NF-κB signaling pathway is recorded as “very high NF-κB activity inhibitory ability”. In addition, the “RIG1 activity inhibitory effect” value with RIG1 is on record as “very high RIG1 activity inhibitory ability”. Besides, the “STAT3 activity inhibitory effect” value in the assay with STAT3 signaling is reported as “very high STAT3 activity inhibitory ability”. In addition, the “STAT6 activity inhibitory effect” value in the assay with STAT6 signaling is “very high STAT6 activity inhibitory ability”. Moreover, in the assay on IL-2 gene expression, the “IL-2 gene expression inhibitory activity” value is given as “IL-2 gene expression inhibitory activity at a significant level equal to or greater than that of cyclosporine; also recorded: effectively inhibit”. For the same compound, the “inhibitory ability” value in the assay with IFNγ expression is on record as “effectively inhibit”. Besides, the “IL-4 gene expression inhibitory activity” value with IL-4 gene expression is “IL-4 gene expression inhibitory activity at a significant level equal to or greater than that of cyclosporine; also recorded: effectively inhibit”. Also, the “IL-17a gene expression inhibitory activity” value in the assay on IL-17a gene expression (control cyclosporine (CSA), FIG. 10) was “excellent IL-17a expression inhibitory activity compared with cyclosporine”. In addition, the “IL-17a gene expression inhibitory activity, fold higher compared with Compound 3” value with IL-17a gene expression (relative to Compound 3) was “at least 6 fold”. Also, the “IL-17a gene expression inhibitory activity, fold higher compared with Compound 9” value in the assay with IL-17a gene expression (relative to Compound 9) is given as “at least 3 fold”.

On to `COC(=O)c1cc(/C=C/C(=O)N2CCC=C(Cl)C2=O)ccc1O` [Compound 12, (E)-methyl-5-(3-(3-chloro-2-oxo-5,6-dihydropyridin-1(2H)-yl)-3-oxoprop-1-en-1-yl)-2-hydroxybenzoate], for which, in the assay with STAT3 signaling, the “STAT3 activity inhibitory effect” value is on record as “very high STAT3 activity inhibitory ability”. Moreover, the “STAT6 activity inhibitory effect” value in the assay with STAT6 signaling was “very high STAT6 activity inhibitory ability”.

Take `O=C(/C=C/c1cccc([N+](=O)[O-])c1)N1CCC=C(Cl)C1=O` [Compound 16, (E)-3-chloro-1-(3-(3-nitrophenyl)acryloyl)-5,6-dihydropyridin-2(1H)-one]: in the assay with STAT3 signaling, the “STAT3 activity inhibitory effect” value was “very high STAT3 activity inhibitory ability”. Further, the “STAT6 activity inhibitory effect” value with STAT6 signaling was “very high STAT6 activity inhibitory ability”.

As for `COC(=O)c1cc(/C=C/C(=O)N2CCC=C(Br)C2=O)ccc1O` [Compound 10, (E)-methyl-5-(3-(3-bromo-2-oxo-5,6-dihydropyridin-1(2H)-yl)-3-oxoprop-1-en-1-yl)-2-hydroxybenzoate], the “RIG1 activity inhibitory effect” value with RIG1 was “very high RIG1 activity inhibitory ability”. The “STAT3 activity inhibitory effect” value in the assay with STAT3 signaling is reported as “very high STAT3 activity inhibitory ability”.
